# Measurements: patent US20230330040A1, “IMMUNOLOGICAL EFFECTS OF METABOLITES” (The Regents of the University of California, priority 2020, published 2023)
# “Also recorded” adds a separate entry of the source.
# Tests used:
# [1] = test system: C. elegans var. Bristol (N2); assay: C. elegans lifespan analysis; format: in vivo; conditions: for lifespan extension versus untreated control worms / lifespan versus spermidine treated worms: lifelong treatment; for lifespan extension versus untreated control worms: 0.2 mM spermidine, 0.5 mM 1-MNA, 0.01 and 0.1 mM PEA, 0.01 mM OEA, b30 prints 100 μM spermidine, 100 μM 1-MNA; for lifespan extension versus Control: lifelong exposure
# Procedure: C. elegans var. Bristol (N2), was used as the wild-type strain. Strains were maintained and lifespan assays were performed at 20° C. Twenty-four hours after seeding Escherichia coli (OP50) bacteria on standard NGM plates, the bacteria were killed by 4 min exposure to UV irradiation using a Stratalinker UV crosslinker (Stratagene, Model 2400). The following concentrations of compounds were used: 0.2 mM spermidine, 0.5 mM 1-MNA, 0.01 and 0.1 mM PEA, and 0.01 mM OEA. Spermidine and MNA were diluted into 100 μl sterilized water and applied to the top of the agar medium (3 ml NGM plates). Plates were then gently swirled to allow compounds to spread to the entire NGM surface. Identical solutions of compound-free water were used for the control plates. Plates were then allowed to dry overnight. The procedure was repeated each time worms were transferred to fresh plates (every 2-4 days). PEA and OEA were added to cooled agar, prior to solidification; for the combination, all compounds were added to cooled agar and plates stored at 4° C. Synchronous worm populations were generated by hypochlorite treatment of gravid adults and life span assays were performed beginning at the L4 stage (Day 0). Seven to eight plates of 15 worms each were exposed to the indicated compounds. Animals were transferred to fresh plates every 2 days for the first week and then 3-4 days thereafter. Worms were examined for touch-provoked movement and pharyngeal pumping, until death. Worms that died due to desiccation from crawling on the edge of the plates, were censored. Kaplan-Meier survival curves were created to evaluate C. elegans lifespan. The R package survival (3.1.8) was used to fit the Cox proportional hazards regression model to evaluate differences of survivals between each treatment group versus control.
# [2] = test system: total cyclooxygenase (COX) activity; assay: COX activity assay in LPS stimulated THP-1 macrophage; format: cell-based, human; conditions: spermidine 100 μM, 1-MNA 100 μM, PEA 10 nM, OEA 10 μM, Combo = all four
# Procedure: For certain assays requiring high cellular concentrations beyond what was feasible to isolate from human volunteers, THP-1 monocytes (ATCC, TIB-202) were cultured in RPMI 1640, 10% FBS, lx PSG and differentiated into M0 macrophage using 100 nM phorbol 12-myristate-13-acetate (PMA) for 2 days followed by incubation with clean RPMI, 10% FBS, 1×PSG for 1 day.
# The effect of treatment with participant plasma and individual metabolites on the total cellular COX activity of THP-1 macrophage was measured using a commercially available kit (Cayman Chemical, 760151). In order to induce COX-2 expression, THP-1 macrophage were incubated with 10 ng/mL of lipopolysaccharide (LPS) (Sigma, LPS25) in RPMI, 1×PSG along with 20% participant plasma, or in RMPI, 10% FBS, 1×PSG either alone as a positive control or with isolated metabolites overnight (approximately 18 hrs) before measuring total COX activity from cell lysates. A negative control of macrophage in RPMI, 10% FBS, 1×PSG without LPS was also performed. (Inter CV: 5.4, Intra CV: 12.3)
SMILES,lifespan extension versus untreated control worms [1],total COX activity versus vehicle treated positive control [2],lifespan extension versus Control ([1]; PEA 10 μM (lower concentration)),lifespan extension versus Control ([1]; PEA 100 μM),lifespan versus spermidine treated worms [1]
"C[n+]1cccc(C(N)=O)c1 [1-MNA, 1-methylnicotinamide]",Significant lifespan extension was observed for all metabolites except 1-MNA,,,,
"CCCCCCCCCCCCCCCC(=O)NCCO [PEA, palmitoylethanolamide]",significantly increased lifespan extension,potent inhibitor of COX activity,most effective at increasing lifespan; also recorded: Significant lifespan extension,Significant lifespan extension,significantly increased lifespan
"CCCCCCCC/C=C\CCCCCCCC(=O)NCCO [OEA, oleoylethanolamide]",significantly increased lifespan extension; also recorded: Significant lifespan extension,,,,significantly increased lifespan
NCCCCNCCCN [spermidine],significantly increased lifespan extension; also recorded: Significant lifespan extension,,,,
